For assay [1], the system named is Proteus penneri NT6-2 – tet(X6). Kind of assay: microbe, parasite or virus in culture. It counts as cell-based. To be noted: for MIC: Proteus penneri, read-out: Tet(X) Inhibitor MIC; for Combination (Antibiotic/Inhibitor) MICs: inhibitor / Combination (Antibiotic/Inhibitor) MICs: antibiotic: lowest FICI.
For assay [2], the system named is E. coli TOP10 containing plasmid pBAD-TOPO-Tet(X4). As to the kind of experiment: Broth microdilution MIC and checkerboard assay. It counts as cell-based, Escherichia coli. Conditions: for MIC: Escherichia coli; for Combination (antibiotic/inhibitor) MIC: inhibitor: inhibitor in combination with tigecycline; for Combination (antibiotic/inhibitor) MIC: inhibitor / Combination (antibiotic/inhibitor) MIC: antibiotic / Combination (Antibiotic/Inhibitor) MICs: antibiotic / Combination (Antibiotic/Inhibitor) MICs: inhibitor: lowest FICI; for Combination (antibiotic/inhibitor) MIC: antibiotic: tigecycline in combination with the inhibitor; for Tet(X) inhibitor MIC: alone; for reduction of the tigecycline MIC: at high concentrations of inhibitor. The method, boiled down: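 E. coli TOP10 with pBAD-TOPO-Tet(X4), […], tested by CLSI broth microdilution in CAMHB, ~1.5 × 10^6 cfu mL^−1 inoculum, 37 °C, 18 h. Checkerboard of seven 2-fold inhibitor dilutions × ten dilutions; growth read visually ± resazurin; FICI = FICA + FICB.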
Background: Broth dilution looks for growth in wells or tubes with falling amounts of substance.

Assay [3] has as its target Tet(X4) (Escherichia coli, UniProt A0A3T0V9Y5). As to the kind of experiment: FP competitive displacement of probe 6. The assay is classed as binding. Conditions: for IC50: IC50app, 25 nM 6, 40 nM Tet(X4), 5 mM MgCl2, 1 μM FAD, 100 mM Tris pH 7.0, 0.01% Triton X-100. The method, boiled down:
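FP displacement of probe 6 (added as 50 nM solution) from Tet(X4) (2× mix: 80 nM enzyme, 2 μM FAD, 10 mM MgCl2), 30 min at ambient temperature. Dose-response used 3-fold, 10-point DMSO series (top 5 or 0.5 mM stock). IC50^app came from a Hill fit of control-normalised response. Library screening used 10 μM compound, 0.1% DMSO, […].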

Setting [4] is: inhibitor in combination with tigecycline.
Where [5] appears, read: tigecycline in combination with the inhibitor.
[6] abbreviates: read-out: Tet(X) Inhibitor MIC, alone, without L-arabinose induction.
[7] abbreviates: read-out: Tet(X) inhibitor MIC, alone, induced with 0.2%w/v L-arabinose.
[8] abbreviates: with tigecycline, 0.2%w/v L-arabinose.
Setting [9] is: with tigecycline, without L-arabinose.
[10] abbreviates: induced with 0.2%w/v L-arabinose.
Setting [11] is: with doxycycline, 0.2%w/v L-arabinose.
Setting [12] is: with doxycycline, no L-arabinose.
[13] abbreviates: with tetracycline, 0.2%w/v L-arabinose.
Setting [14] is: with tetracycline, no L-arabinose.

Like-named read-outs stand apart in the source and are kept apart here.

Usually IC50 stands for the midpoint of a concentration-inhibition curve.

As to `Cc1c2c(c(O)c3c(O)cccc13)C(=O)[C@]1(O)C(=O)C(C(N)=O)=C(O)[C@@H](N(C)C)[C@@H]1C2` [Anhydrotetracycline], the MIC turned out to be 4 µg/mL in assay [1], 8 µg/mL in assay [2] (setting [6]) and 8 µg/mL in assay [2] (setting [7]). Also, the “Combination (Antibiotic/Inhibitor) MICs: inhibitor” value in assay [1] (setting [4]) stood at 1 µg/mL. For the same molecule, the “Combination (Antibiotic/Inhibitor) MICs: antibiotic” value in assay [1] (setting [5]) stood at 4 µg/mL. The FICI is 0.8 in assay [1] (with tigecycline), 0.4 in assay [2] (setting [8]) and 2 in assay [2] (setting [9]). The values for the Outcome result in assay [1] (with tigecycline), in assay [2] (setting [8]) and in assay [2] (setting [9]) were “indifferent (indifferent (0.5-4.0))”, “Synergy (synergy (≤0.5))” and “indifferent (indifferent (0.5-4.0))”, respectively. For the same molecule, the “Combination (antibiotic/inhibitor) MIC: inhibitor” value stood at 2 µg/mL in assay [2] (0.2%w/v L-arabinose) and 8 µg/mL in assay [2] (without L-arabinose). Also, the “Combination (antibiotic/inhibitor) MIC: antibiotic” value in assay [2] (0.2%w/v L-arabinose) worked out at 0.5 µg/mL; in assay [2] (without L-arabinose), 0.25 µg/mL. The molecule further came in with a 50% inhibitory concentration (IC50) in assay [3] (FP assay) of 0.0268 ± 0.0053 µM. For the same molecule, the “displacement of probe 6 / competitive binding (in words)” value in assay [3] (up to a maximum concentration of 100 μM) was “clear dose-dependent displacement”.

Regarding `O=C(c1ccc(OCCN2CCCCC2)cc1)c1c(-c2ccc(O)cc2)sc2cc(O)ccc12` [Raloxifene], the MIC in assay [1], in assay [2] (setting [6]) and in assay [2] (setting [7]) was more than 128 µg/mL each time. Further, the “Combination (Antibiotic/Inhibitor) MICs: inhibitor” value in assay [1] (setting [4]) was more than 128 µg/mL. In addition, in assay [1] (setting [5]), the “Combination (Antibiotic/Inhibitor) MICs: antibiotic” value was 8 µg/mL. In addition, the values for the FICI in assay [1] (with tigecycline), in assay [2] (setting [8]) and in assay [2] (setting [9]) were 2, 1.1 and 2, respectively. Also, the Outcome result was “indifferent (indifferent (0.5-4.0))” in assay [1] (with tigecycline), “Indifferent (indifferent (0.5–4.0))” in assay [2] (setting [8]) and “indifferent (indifferent (0.5-4.0))” in assay [2] (setting [9]). The “Combination (antibiotic/inhibitor) MIC: inhibitor” value is 128 µg/mL in assay [2] (0.2%w/v L-arabinose) and more than 128 µg/mL in assay [2] (without L-arabinose). Besides, the “Combination (antibiotic/inhibitor) MIC: antibiotic” value in assay [2] (0.2%w/v L-arabinose) was 0.5 µg/mL; in assay [2] (without L-arabinose) it was 0.25 µg/mL. This molecule also registered an IC50 in assay [3] (Tet(X4) (Polarization)) of 19.8 ± 5.4 µM.

On to `[H]/N=C(/NCCCCC)N/N=C/c1c[nH]c2ccc(OC)cc12` [Tegaserod], for which the MIC in assay [1] is 64 µg/mL; in assay [2] (read-out: Tet(X) Inhibitor MIC, alone, 0.2%w/v L-arabinose (Table S7)), 16 µg/mL; in assay [2] (setting [6]) it was 16 µg/mL; in assay [2] (setting [7]), 16 to 64 µg/mL. Also, the “Combination (Antibiotic/Inhibitor) MICs: antibiotic” value in assay [1] (doxycycline with tegaserod) worked out at 8 µg/mL; in assay [1] (tetracycline with tegaserod) it was 16 µg/mL; in assay [1] (setting [5]) it was 4 µg/mL; in assay [2] (doxycycline with tegaserod, 0.2%w/v L-arabinose), 16 µg/mL; in assay [2] (doxycycline with tegaserod, no L-arabinose), 8 µg/mL; in assay [2] (tetracycline with tegaserod, 0.2%w/v L-arabinose) it was 64 µg/mL. Also, the “Combination (Antibiotic/Inhibitor) MICs: antibiotic” value in assay [2] (tetracycline with tegaserod, no L-arabinose) turned out to be 16 µg/mL. Also, the “Combination (Antibiotic/Inhibitor) MICs: inhibitor” value in assay [1] (setting [4]) was 16 µg/mL; in assay [1] (tegaserod with doxycycline) it was 32 µg/mL; in assay [1] (tegaserod with tetracycline) it was 32 µg/mL; in assay [2] (tegaserod with doxycycline, 0.2%w/v L-arabinose), 4 µg/mL; in assay [2] (tegaserod with doxycycline, no L-arabinose), 0.5 µg/mL; in assay [2] (tegaserod with tetracycline, 0.2%w/v L-arabinose), 8 µg/mL. Further, in assay [2] (tegaserod with tetracycline, no L-arabinose), the “Combination (Antibiotic/Inhibitor) MICs: inhibitor” value amounted to 4 µg/mL. Moreover, the FICI in assay [1] (with doxycycline) is 1.0; in assay [1] (with tetracycline) it was 1.0; in assay [1] (with tigecycline), 0.8; in assay [2] (setting [11]), 0.8; in assay [2] (setting [12]), 1.0; in assay [2] (setting [13]) it was 1.0. Further, the FICI in assay [2] (setting [14]) is on record as 2.0; in assay [2] (setting [8]) it was 0.8; in assay [2] (with tigecycline, 0.2%w/v L-arabinose, listed as tegaserod) it was 0.5-1; in assay [2] (setting [9]) it was 2. Also, the Outcome entry in assay [1] (with doxycycline), in assay [1] (with tetracycline), in assay [1] (with tigecycline), in assay [2] (setting [11]), in assay [2] (setting [12]) and in assay [2] (setting [13]) was “indifferent (indifferent (0.5-4.0))” each time. Also, the values for the Outcome result in assay [2] (setting [14]), in assay [2] (setting [8]) and in assay [2] (setting [9]) were “indifferent (indifferent (0.5-4.0))”, “Indifferent (indifferent (0.5–4.0))” and “indifferent (indifferent (0.5-4.0))”, respectively. In assay [2] (setting [10]), the “Tet(X) inhibitor MIC” value came to 16 µg/mL. Besides, the “reduction of the tigecycline MIC” value in assay [2] (0.2%w/v L-arabinose) is recorded as 2–4 fold. Further, the “Combination (antibiotic/inhibitor) MIC: inhibitor” value in assay [2] (0.2%w/v L-arabinose) came to 8 µg/mL; in assay [2] (without L-arabinose), 16 µg/mL. For the same molecule, the “Combination (antibiotic/inhibitor) MIC: antibiotic” value in assay [2] (0.2%w/v L-arabinose) worked out at 1 µg/mL; in assay [2] (without L-arabinose), 0.25 µg/mL. In assay [3] (Tet(X4) (Polarization)), this molecule showed an IC50 of 43.2 ± 2.2 µM.

For the molecule `CN1CCN(CCCN2c3ccccc3Sc3ccc(C(F)(F)F)cc32)CC1` [Trifluoperazine], the MIC in assay [1] is more than 128 µg/mL; in assay [2] (setting [6]) it was 64 µg/mL. The “Combination (Antibiotic/Inhibitor) MICs: inhibitor” value in assay [1] (setting [4]) stood at 128 µg/mL. Also, the “Combination (Antibiotic/Inhibitor) MICs: antibiotic” value in assay [1] (setting [5]) was determined as 4 µg/mL. The FICI in assay [1] (with tigecycline) is 1.5; in assay [2] (setting [8]), 0.6; in assay [2] (with tigecycline, 0.2%w/v L-arabinose, listed as trifluoperazine), 0.5-1; in assay [2] (setting [9]), 1. The Outcome result in assay [1] (with tigecycline) is “indifferent (indifferent (0.5-4.0))”; in assay [2] (setting [8]), “Indifferent (indifferent (0.5–4.0))”; in assay [2] (setting [9]), “indifferent (indifferent (0.5-4.0))”. Further, the “Tet(X) inhibitor MIC” value is 64 µg/mL in assay [2] (setting [10]) and 16 to 64 µg/mL in assay [2] (induced with 0.2%w/v L-arabinose, listed as trifluoperazine). In addition, the “reduction of the tigecycline MIC” value in assay [2] (0.2%w/v L-arabinose) is recorded as 2–4 fold. Further, the “Combination (antibiotic/inhibitor) MIC: inhibitor” value turned out to be 8 µg/mL in assay [2] (0.2%w/v L-arabinose) and 32 µg/mL in assay [2] (without L-arabinose). The results for the “Combination (antibiotic/inhibitor) MIC: antibiotic” value in assay [2] (0.2%w/v L-arabinose) and in assay [2] (without L-arabinose) were 2 µg/mL and 0.13 µg/mL, respectively. Moreover, in assay [3] (Tet(X4) (Polarization)), the IC50 is 55.6 ± 14.2 µM.

(Values after publication PMC12056667 (Chemical Science, 2025).)
